Measured values published in patent US10307431B2, “Lyophilized cyclophosphamide composition and methods of preparation thereof” (priority 2017, dated 2019).
Where two headings read alike, the source gives them in different places.

Tests used:
[1] = background, prior art, cited from earlier work
[2] = bulk solution maintained at 5° C. to 15° C., such as 12° C.±3° C., for an extended period of time

O=P1(N(CCCl)CCCl)NCCCO1 (stereo not drawn) [monohydrate drug form, cyclophosphamide monohydrate]
stability as reported ([1]; monohydrate): stable

O=P1(N(CCCl)CCCl)NCCCO1 (stereo not drawn) [cyclophosphamide, 2-[bis(2-chloroethyl)amino]tetrahydro-2H-1,3,2-oxazaphosphorine 2-oxide]
degradation in bulk solution [2]: significant degradation

O=P1(N(CCCl)CCCl)NCCCO1 (stereo not drawn) [anhydrous form, cyclophosphamide anhydrous]
stability as reported [1]: highly unstable
